Key:
Experiment in all cases: SelectScreen ZLYTE
Format in all cases: biochemical
Conditions in all cases: INX-0315 at 100nM
[1] = target: T1, CAMK4 (CaMKIV) (Homo sapiens, UniProt Q16566)
T1 construct: purchased Thermo Fisher Scientific SelectScreen (plus Nanosyn / Reaction Biology for CDK/cyclin lines)
How it was run: (§1)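 Under the service's preestablished protocols, INX-315 was tested initially at 100 nmol/L with 1% DMSO present, and subsequently across ten concentrations from 1 µmol/L to 0.0495 nmol/L.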

[2] = target: T2, EGFR (ErbB1) G719S (Homo sapiens, UniProt P00533, G719S)
T2 construct: purchased Thermo Fisher Scientific SelectScreen (plus Nanosyn / Reaction Biology for CDK/cyclin lines)
How it was run: as §1

[3] = target: T3, CDC42 BPA (MRCKA) (Homo sapiens, UniProt Q5VT25)
T3 construct: purchased Thermo Fisher Scientific SelectScreen (plus Nanosyn / Reaction Biology for CDK/cyclin lines)
How it was run: as §1

[4] = target: T4, MET (cMet) (Homo sapiens, UniProt P08581)
T4 construct: purchased Thermo Fisher Scientific SelectScreen (plus Nanosyn / Reaction Biology for CDK/cyclin lines)
How it was run: as §1

[5] = target: T5, EPHA1 (Homo sapiens, UniProt P21709)
T5 construct: purchased Thermo Fisher Scientific SelectScreen (plus Nanosyn / Reaction Biology for CDK/cyclin lines)
How it was run: as §1

[6] = target: T6, FLT3 D835Y (Homo sapiens, UniProt P36888, D835Y)
T6 construct: purchased Thermo Fisher Scientific SelectScreen (plus Nanosyn / Reaction Biology for CDK/cyclin lines)
How it was run: as §1

[7] = target: T7, MAPKAPK5 (PRAK) (Homo sapiens, UniProt Q8IW41)
T7 construct: purchased Thermo Fisher Scientific SelectScreen (plus Nanosyn / Reaction Biology for CDK/cyclin lines)
How it was run: as §1

[8] = target: T8, ZAP70 (Homo sapiens, UniProt P43403)
T8 construct: purchased Thermo Fisher Scientific SelectScreen (plus Nanosyn / Reaction Biology for CDK/cyclin lines)
How it was run: as §1

[9] = target: T9, JAK2 JH1 JH2 (Homo sapiens, UniProt O60674)
T9 construct: JAK2 JH1 JH2; purchased Thermo Fisher Scientific SelectScreen (plus Nanosyn / Reaction Biology for CDK/cyclin lines)
How it was run: as §1

[10] = target: T10, DYRK1A (Homo sapiens, UniProt Q13627)
T10 construct: purchased Thermo Fisher Scientific SelectScreen (plus Nanosyn / Reaction Biology for CDK/cyclin lines)
How it was run: as §1

[11] = target: T11, PIM3 (Homo sapiens, UniProt Q86V86)
T11 construct: purchased Thermo Fisher Scientific SelectScreen (plus Nanosyn / Reaction Biology for CDK/cyclin lines)
How it was run: as §1

[12] = target: T12, DYRK1B (Homo sapiens, UniProt Q9Y463)
T12 construct: purchased Thermo Fisher Scientific SelectScreen (plus Nanosyn / Reaction Biology for CDK/cyclin lines)
How it was run: as §1

[13] = target: T13, MAPK7 (ERK5) (Homo sapiens, UniProt Q13164)
T13 construct: purchased Thermo Fisher Scientific SelectScreen (plus Nanosyn / Reaction Biology for CDK/cyclin lines)
How it was run: as §1

[14] = target: T14, STK22D (TSSK1) (Homo sapiens, UniProt Q9BXA7)
T14 construct: purchased Thermo Fisher Scientific SelectScreen (plus Nanosyn / Reaction Biology for CDK/cyclin lines)
How it was run: as §1

[15] = target: T15, MAPKAPK2 (Homo sapiens, UniProt P49137)
T15 construct: purchased Thermo Fisher Scientific SelectScreen (plus Nanosyn / Reaction Biology for CDK/cyclin lines)
How it was run: as §1

[16] = target: T16, MUSK (Homo sapiens, UniProt O15146)
T16 construct: purchased Thermo Fisher Scientific SelectScreen (plus Nanosyn / Reaction Biology for CDK/cyclin lines)
How it was run: as §1

[17] = target: T17, EPHA2 (Homo sapiens, UniProt P29317)
T17 construct: purchased Thermo Fisher Scientific SelectScreen (plus Nanosyn / Reaction Biology for CDK/cyclin lines)
How it was run: as §1

[18] = target: T18, FES (FPS) (Homo sapiens, UniProt P07332)
T18 construct: purchased Thermo Fisher Scientific SelectScreen (plus Nanosyn / Reaction Biology for CDK/cyclin lines)
How it was run: as §1

[19] = target: T19, MAP4K4 (HGK) (Homo sapiens, UniProt O95819)
T19 construct: purchased Thermo Fisher Scientific SelectScreen (plus Nanosyn / Reaction Biology for CDK/cyclin lines)
How it was run: as §1

[20] = target: T20, CDKL5 (Homo sapiens, UniProt O76039)
T20 construct: purchased Thermo Fisher Scientific SelectScreen (plus Nanosyn / Reaction Biology for CDK/cyclin lines)
How it was run: as §1

[21] = target: T21, ABL1 Y253F (Homo sapiens, UniProt P00519, Y253F)
T21 construct: purchased Thermo Fisher Scientific SelectScreen (plus Nanosyn / Reaction Biology for CDK/cyclin lines)
How it was run: as §1

[22] = target: T22, MAPK9 (JNK2) (Homo sapiens, UniProt P45984)
T22 construct: purchased Thermo Fisher Scientific SelectScreen (plus Nanosyn / Reaction Biology for CDK/cyclin lines)
How it was run: as §1

[23] = target: T23, RPS6KA2 (RSK3) (Homo sapiens, UniProt Q15349)
T23 construct: purchased Thermo Fisher Scientific SelectScreen (plus Nanosyn / Reaction Biology for CDK/cyclin lines)
How it was run: as §1

[24] = target: T24, YES1 (Homo sapiens, UniProt P07947)
T24 construct: purchased Thermo Fisher Scientific SelectScreen (plus Nanosyn / Reaction Biology for CDK/cyclin lines)
How it was run: as §1

[25] = target: T25, AMPK (A2/B2/G3) (Homo sapiens, UniProt P54646)
T25 construct: purchased Thermo Fisher Scientific SelectScreen (plus Nanosyn / Reaction Biology for CDK/cyclin lines)
How it was run: as §1

[26] = target: T26, MARK3 (Homo sapiens, UniProt P27448)
T26 construct: purchased Thermo Fisher Scientific SelectScreen (plus Nanosyn / Reaction Biology for CDK/cyclin lines)
How it was run: as §1

[27] = target: T27, AKT2 (PKB beta) (Homo sapiens, UniProt P31751)
T27 construct: purchased Thermo Fisher Scientific SelectScreen (plus Nanosyn / Reaction Biology for CDK/cyclin lines)
How it was run: as §1

[28] = target: T28, RPS6KA5 (MSK1) (Homo sapiens, UniProt O75582)
T28 construct: purchased Thermo Fisher Scientific SelectScreen (plus Nanosyn / Reaction Biology for CDK/cyclin lines)
How it was run: as §1

T2 sequence (P00533 25-1210 G719S): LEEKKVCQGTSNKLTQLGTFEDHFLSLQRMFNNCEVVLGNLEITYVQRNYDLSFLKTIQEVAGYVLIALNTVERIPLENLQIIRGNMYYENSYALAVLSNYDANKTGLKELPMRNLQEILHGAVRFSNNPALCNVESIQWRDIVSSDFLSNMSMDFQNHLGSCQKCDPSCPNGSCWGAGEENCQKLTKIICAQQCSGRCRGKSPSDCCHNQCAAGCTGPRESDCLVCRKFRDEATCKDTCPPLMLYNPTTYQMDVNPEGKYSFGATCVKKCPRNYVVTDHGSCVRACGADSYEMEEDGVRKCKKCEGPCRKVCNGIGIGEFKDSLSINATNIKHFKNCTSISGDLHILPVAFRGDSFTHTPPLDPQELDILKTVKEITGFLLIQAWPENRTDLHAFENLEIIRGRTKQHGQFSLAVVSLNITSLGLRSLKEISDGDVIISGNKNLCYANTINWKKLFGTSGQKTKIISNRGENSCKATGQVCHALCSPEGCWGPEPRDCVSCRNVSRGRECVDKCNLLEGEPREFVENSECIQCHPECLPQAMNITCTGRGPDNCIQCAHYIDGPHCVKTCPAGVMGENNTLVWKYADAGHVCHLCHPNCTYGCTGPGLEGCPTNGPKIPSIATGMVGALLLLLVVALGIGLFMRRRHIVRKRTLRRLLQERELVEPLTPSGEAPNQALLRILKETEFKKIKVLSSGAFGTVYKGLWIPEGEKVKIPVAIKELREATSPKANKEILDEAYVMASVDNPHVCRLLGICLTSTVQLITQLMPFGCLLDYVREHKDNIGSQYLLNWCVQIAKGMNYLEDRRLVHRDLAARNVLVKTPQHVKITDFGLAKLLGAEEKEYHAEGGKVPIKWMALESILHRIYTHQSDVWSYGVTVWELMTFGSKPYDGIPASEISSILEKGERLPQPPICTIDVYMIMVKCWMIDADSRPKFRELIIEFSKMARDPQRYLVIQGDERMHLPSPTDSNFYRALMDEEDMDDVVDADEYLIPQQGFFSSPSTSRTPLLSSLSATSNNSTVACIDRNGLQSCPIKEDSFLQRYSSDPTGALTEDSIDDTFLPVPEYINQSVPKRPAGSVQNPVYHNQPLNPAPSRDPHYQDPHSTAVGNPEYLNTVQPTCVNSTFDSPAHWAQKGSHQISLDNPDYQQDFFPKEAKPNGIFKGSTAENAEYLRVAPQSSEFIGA
T16 sequence (O15146 24-869): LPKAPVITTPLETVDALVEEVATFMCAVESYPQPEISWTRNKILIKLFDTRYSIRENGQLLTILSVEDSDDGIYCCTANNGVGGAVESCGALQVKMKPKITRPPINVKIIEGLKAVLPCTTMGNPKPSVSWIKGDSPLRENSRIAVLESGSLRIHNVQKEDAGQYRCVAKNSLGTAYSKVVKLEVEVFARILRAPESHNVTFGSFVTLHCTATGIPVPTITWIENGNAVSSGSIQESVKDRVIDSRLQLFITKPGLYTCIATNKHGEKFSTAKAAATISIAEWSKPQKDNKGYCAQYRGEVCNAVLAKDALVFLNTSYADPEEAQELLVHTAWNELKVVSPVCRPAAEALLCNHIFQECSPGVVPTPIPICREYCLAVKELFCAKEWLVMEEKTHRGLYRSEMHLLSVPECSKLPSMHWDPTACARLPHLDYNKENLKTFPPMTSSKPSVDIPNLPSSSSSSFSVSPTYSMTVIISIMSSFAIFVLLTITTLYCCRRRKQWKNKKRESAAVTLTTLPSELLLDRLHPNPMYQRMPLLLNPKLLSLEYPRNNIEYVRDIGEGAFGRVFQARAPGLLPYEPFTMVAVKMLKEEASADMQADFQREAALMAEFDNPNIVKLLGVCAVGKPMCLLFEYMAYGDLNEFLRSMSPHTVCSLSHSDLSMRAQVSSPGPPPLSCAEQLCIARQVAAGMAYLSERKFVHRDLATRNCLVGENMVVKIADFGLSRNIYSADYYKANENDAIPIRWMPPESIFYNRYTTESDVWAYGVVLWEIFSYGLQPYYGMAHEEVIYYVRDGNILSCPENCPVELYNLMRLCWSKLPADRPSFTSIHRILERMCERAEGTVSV
T13 sequence (Q13164 whole entry): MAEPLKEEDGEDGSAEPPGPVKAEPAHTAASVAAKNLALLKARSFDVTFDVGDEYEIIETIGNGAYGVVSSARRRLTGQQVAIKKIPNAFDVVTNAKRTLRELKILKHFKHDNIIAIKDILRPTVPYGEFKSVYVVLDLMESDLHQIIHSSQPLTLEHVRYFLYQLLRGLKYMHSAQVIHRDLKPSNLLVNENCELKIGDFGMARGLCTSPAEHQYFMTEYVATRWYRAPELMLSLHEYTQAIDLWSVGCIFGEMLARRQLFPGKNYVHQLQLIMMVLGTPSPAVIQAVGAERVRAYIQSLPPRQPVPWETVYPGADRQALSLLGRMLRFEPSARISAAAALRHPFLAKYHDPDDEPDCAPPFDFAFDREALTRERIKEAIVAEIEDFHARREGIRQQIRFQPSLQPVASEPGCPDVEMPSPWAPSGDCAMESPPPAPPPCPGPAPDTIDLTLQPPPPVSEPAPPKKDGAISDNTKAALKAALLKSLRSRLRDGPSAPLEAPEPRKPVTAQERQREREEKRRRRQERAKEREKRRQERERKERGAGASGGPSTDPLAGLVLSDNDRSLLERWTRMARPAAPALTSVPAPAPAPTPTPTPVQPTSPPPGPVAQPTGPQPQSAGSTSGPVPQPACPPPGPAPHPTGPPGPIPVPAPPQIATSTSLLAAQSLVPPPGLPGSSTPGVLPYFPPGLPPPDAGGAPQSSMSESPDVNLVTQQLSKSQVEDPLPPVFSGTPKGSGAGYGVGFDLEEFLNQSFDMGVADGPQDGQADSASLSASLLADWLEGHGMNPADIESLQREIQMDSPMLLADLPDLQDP
T18 sequence (P07332 whole entry): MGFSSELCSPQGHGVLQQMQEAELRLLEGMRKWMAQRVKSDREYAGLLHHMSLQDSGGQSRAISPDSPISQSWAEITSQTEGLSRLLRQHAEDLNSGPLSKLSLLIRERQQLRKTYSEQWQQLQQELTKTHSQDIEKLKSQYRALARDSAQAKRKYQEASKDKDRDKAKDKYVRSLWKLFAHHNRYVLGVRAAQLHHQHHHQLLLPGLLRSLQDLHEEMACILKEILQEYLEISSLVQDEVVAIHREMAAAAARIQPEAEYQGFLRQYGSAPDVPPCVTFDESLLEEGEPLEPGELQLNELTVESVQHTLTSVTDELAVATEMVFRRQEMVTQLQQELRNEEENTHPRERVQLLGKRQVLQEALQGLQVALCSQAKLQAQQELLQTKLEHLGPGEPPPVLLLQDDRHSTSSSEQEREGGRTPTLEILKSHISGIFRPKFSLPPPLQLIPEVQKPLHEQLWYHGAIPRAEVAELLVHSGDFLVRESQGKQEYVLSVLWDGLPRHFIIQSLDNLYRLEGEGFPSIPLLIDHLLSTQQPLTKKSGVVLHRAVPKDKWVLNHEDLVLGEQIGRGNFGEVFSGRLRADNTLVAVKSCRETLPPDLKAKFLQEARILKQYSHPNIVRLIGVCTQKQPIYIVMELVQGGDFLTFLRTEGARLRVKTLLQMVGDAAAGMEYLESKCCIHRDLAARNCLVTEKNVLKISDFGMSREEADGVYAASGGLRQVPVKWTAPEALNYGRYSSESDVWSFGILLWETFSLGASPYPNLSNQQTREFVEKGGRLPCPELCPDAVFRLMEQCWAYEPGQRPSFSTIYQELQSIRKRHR
T14 sequence (Q9BXA7 whole entry): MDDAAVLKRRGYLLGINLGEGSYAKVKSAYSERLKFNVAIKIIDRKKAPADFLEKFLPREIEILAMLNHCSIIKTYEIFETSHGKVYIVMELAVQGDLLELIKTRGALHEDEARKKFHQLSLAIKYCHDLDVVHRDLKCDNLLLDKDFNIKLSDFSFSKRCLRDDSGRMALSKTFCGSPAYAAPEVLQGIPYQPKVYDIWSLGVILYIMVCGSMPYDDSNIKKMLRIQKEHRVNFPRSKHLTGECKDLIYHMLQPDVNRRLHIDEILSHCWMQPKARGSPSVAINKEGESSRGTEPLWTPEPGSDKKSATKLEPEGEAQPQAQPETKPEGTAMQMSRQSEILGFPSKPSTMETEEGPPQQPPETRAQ
T23 sequence (Q15349 whole entry): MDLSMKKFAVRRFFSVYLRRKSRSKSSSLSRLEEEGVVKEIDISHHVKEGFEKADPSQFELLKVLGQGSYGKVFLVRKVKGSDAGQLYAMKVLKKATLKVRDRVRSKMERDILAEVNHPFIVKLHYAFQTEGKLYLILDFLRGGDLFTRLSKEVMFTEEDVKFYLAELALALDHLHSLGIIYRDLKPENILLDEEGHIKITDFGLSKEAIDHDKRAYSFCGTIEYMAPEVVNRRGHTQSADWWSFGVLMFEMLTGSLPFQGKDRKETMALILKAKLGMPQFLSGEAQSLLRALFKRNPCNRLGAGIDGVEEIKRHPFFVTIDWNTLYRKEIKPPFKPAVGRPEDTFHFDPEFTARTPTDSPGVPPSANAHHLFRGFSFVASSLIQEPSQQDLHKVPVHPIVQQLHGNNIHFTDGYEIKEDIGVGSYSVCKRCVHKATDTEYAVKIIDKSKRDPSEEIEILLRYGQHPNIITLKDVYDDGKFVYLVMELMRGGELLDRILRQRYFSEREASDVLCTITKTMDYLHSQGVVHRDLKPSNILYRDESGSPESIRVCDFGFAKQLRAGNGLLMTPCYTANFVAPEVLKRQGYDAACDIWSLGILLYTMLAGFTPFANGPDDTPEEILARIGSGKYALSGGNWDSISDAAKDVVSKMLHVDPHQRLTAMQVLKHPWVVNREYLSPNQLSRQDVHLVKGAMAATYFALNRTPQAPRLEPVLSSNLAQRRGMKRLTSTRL

## NS(=O)(=O)c1ccc(Nc2ncc3cc4n(c3n2)C2(CCCCC2)C(=O)NN4)cc1 [INX-315]
[1]
  inhibition at 0.1 µM: 0%
[2]
  inhibition at 0.1 µM: 4%
[3]
  inhibition at 0.1 µM: -3%
[4]
  inhibition at 0.1 µM: 6%
[5]
  inhibition at 0.1 µM: 22%
[6]
  inhibition at 0.1 µM: 31%
[7]
  inhibition at 0.1 µM: 2%
[8]
  inhibition at 0.1 µM: -1%
[9]
  inhibition at 0.1 µM: 44%
[10]
  inhibition at 0.1 µM: 1%
[11]
  inhibition at 0.1 µM: 8%
[12]
  inhibition at 0.1 µM: 1%
[13]
  inhibition at 0.1 µM: 5%
[14]
  inhibition at 0.1 µM: 11%
[15]
  inhibition at 0.1 µM: 3%
[16]
  inhibition at 0.1 µM: 8%
[17]
  inhibition at 0.1 µM: 14%
[18]
  inhibition at 0.1 µM: 17%
[19]
  inhibition at 0.1 µM: 23%
[20]
  inhibition at 0.1 µM: -1%
[21]
  inhibition at 0.1 µM: 8%
[22]
  inhibition at 0.1 µM: -1%
[23]
  inhibition at 0.1 µM: 24%
[24]
  inhibition at 0.1 µM: 16%
[25]
  inhibition at 0.1 µM: 32%
[26]
  inhibition at 0.1 µM: 10%
[27]
  inhibition at 0.1 µM: 1%
[28]
  inhibition at 0.1 µM: 8%
